From patent US11412737B2, “Mixtures of beflubutamid or optically enriched forms thereof with a second herbicide” (FMC Corporation, priority 2016, dated 2022)
Values joined by “and” are separate entries in the source; they are usually repeats but may differ in a detail not shown here. Equal entries are not always repeated.

Tests used:
Assay in all cases: pre-emergence test, weed control
Goosegrass (ELEIN) = format: in vivo; conditions: pre-emergent, 28 DAT; rate g ai/ha by row: r5 94, r6 125, r7 250, r8 62.5, r9 125, r10 250, r11 94+62.5, r12 125+62.5, r13 94+125, r14 125+125, r15 94+250, r16 125+250, r17 78.8, r18 157.5, r19 315, r20 94+78.8, r21 125+78.8, r22 94+157.5, r23 125+157.5, r24 94+315, r25 125+315
Description: (§1) Test compositions containing the test compounds were diluted with water to provide the appropriate test rate concentrations.
(§2) For pre-emergence testing, four disposable fiber flats (6 inch by 10 inch) for each rate of application of each herbicide solution were filled with top soil, to which seeds of each species were planted in furrows made by a template pressed on the top of the soil. The furrows were covered with soil after planting the seed and were watered well before application of the test compounds.
(§3) Fiber flats designated for treatment were placed in a spray chamber having a static platform and a movable sprayer and the height of the spray nozzle was 10.5 inches above the soil level. Once the sprayer was calibrated using water for spray volume of 30 gallons per acre, flats were sprayed with sprayer at a speed to receive a coverage equivalent of 30 gallons per acre. The application rates are those shown in the Tables below for the individual herbicidal solutions and the herbicide compositions of this invention. The pre-emergence flats were immediately placed in the greenhouse and watered lightly after treatment. Thereafter they were regularly watered and fertilized for the duration of the test.
(§4) The control of weeds was evaluated in each experimental test at 21 for wheat and 28 days after treatment (DAT) for all species. Data were analyzed using Minitab software at 95% confidence interval. The results, shown as an average of the replications, were compared with results observed in untreated control flats in the same tests. Percent control was determined by a method similar to the 0 to 100 rating system disclosed in “Research Methods in Weed Science,” 2nd ed., B. Truelove, Ed.; Southern Weed Science Society; Auburn University, Auburn, Ala., 1977. The rating system is as follows in Table 1.

Large crabgrass (DIGSA) = format: in vivo; conditions: pre-emergent, 28 DAT, rate g ai/ha by row: r4 94, r5 50, r6 100, r7 52.5, r8 70, r9 94+52.5, r10 94+70, r11 50+52.5, r12 50+70, r13 100+52.5, r14 100+70
Description: as §1, §2, §3, §4

Barnyardgrass (ECHCG) = format: in vivo, Echinochloa crus-galli; conditions: pre-emergent, 28 DAT; rate g ai/ha by row: r5 94, r6 125, r7 250, r8 62.5, r9 125, r10 250, r11 94+62.5, r12 125+62.5, r13 94+125, r14 125+125, r15 94+250, r16 125+250, r17 78.8, r18 157.5, r19 315, r20 94+78.8, r21 125+78.8, r22 94+157.5, r23 125+157.5, r24 94+315, r25 125+315
Description: as §1, §2
Fiber flats designated for treatment were placed in a spray chamber having a static platform and a movable sprayer and the height of the spray nozzle was 10.5 inches above the soil level. Once the sprayer was calibrated using water for spray volume of 30 gallons per acre, flats were sprayed with sprayer at a speed to receive a coverage equivalent of 30 gallons per acre. […]
The control of weeds was evaluated in each experimental test at 21 for wheat and 28 days after treatment (DAT) for all species. Data were analyzed using Minitab software at 95% confidence interval. […] Percent control was determined by a method similar to the 0 to 100 rating system disclosed in “Research Methods in Weed Science,” 2nd ed., B. Truelove, Ed.; Southern Weed Science Society; Auburn University, Auburn, Ala., 1977. […]

[1] = test system: Common lambsquarters (CHEAL); format: in vivo, Chenopodium album; conditions: pre-emergent, 28 DAT; rate g ai/ha by row: r5 94, r6 125, r7 250, r8 3.28, r9 6.56, r10 13.1, r11 94+3.28, r12 94+6.56, r13 94+13.1, r14 125+3.28, r15 125+6.56, r16 125+13.1
Description: as §1, §2, §3, §4

Kochia (KCHSC) = format: in vivo; conditions: pre-emergent, 28 DAT; rate g ai/ha by row: r5 94, r6 125, r7 250, r8 3.28, r9 6.56, r10 13.1, r11 94+3.28, r12 94+6.56, r13 94+13.1, r14 125+3.28, r15 125+6.56, r16 125+13.1
Description: as §1, §2, §3, §4

Rice flatsedge (CYPIR) = format: in vivo; conditions: pre-emergent, 28 DAT; rate g ai/ha by row: r5 94, r6 125, r7 250, r8 3.28, r9 6.56, r10 13.1, r11 94+3.28, r12 94+6.56, r13 94+13.1, r14 125+3.28, r15 125+6.56, r16 125+13.1
Description: as §1, §2, §3, §4

Compound	percentage of weed control, Goosegrass ELEIN (Goosegrass (ELEIN))	percentage of weed control, DIGSA (Large crabgrass (DIGSA); 52.5 g ai/ha)	percentage of weed control, DIGSA (Large crabgrass (DIGSA); 70 g ai/ha)	percentage of weed control, Barnyardgrass ECHCG (Barnyardgrass (ECHCG))	percentage of weed control, Common lambsquarters CHEAL [1]	percentage of weed control, Kochia KCHSC (Kochia (KCHSC))	percentage of weed control, Rice flatsedge CYPIR (Rice flatsedge (CYPIR))
COC[C@H](C)N(C(=O)CCl)c1c(C)csc1C [Dimethanamid-P]	96%	20%	25%	100%			
COC(=O)c1c(Cl)nn(C)c1S(=O)(=O)NC(=O)Nc1nc(OC)cc(OC)n1 [Halosulfuron-methyl]					86% and 56% and 90%	66% and 38% and 40%	95% and 71% and 99%
